Among the test systems are A498; CCRF-CEM; COLO 205; EKVX; HCT-116; HOP-62; IGROV-1; KM12; LOX IMVI; MOLT-4; NCI-H460; NCI-H522; RXF 393; SF-268; SN12C; UACC-257; UACC-62; ACHN; RPMI-8226; CAKI-1.
What all share (assay): DTP human tumour cell line panel, 48 h

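A five-concentration, 48-hour dose response in 96-well plates underlies each endpoint, interpolated linearly between surrounding concentrations. GI50 is the concentration that inhibits growth by half.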 Activity calls are given as the source filed them. Rule as the data show it: active = GI50 up to about 1.1 µM and inactive = higher.

For `CC1=C2C3OC(=O)C(C)C3CCC2(C)C=C/C1=N\c1ccccc1` (stereo not drawn), the GI50 with A498, in the test on CCRF-CEM, in the test on COLO 205, in the test on EKVX, with HCT-116 and in the test with HOP-62 was > 100 µM (inactive) each time. The GI50 in the test with IGROV-1, in the test with KM12, in the test on LOX IMVI, with MOLT-4, in the test on NCI-H460 and in the test on NCI-H522 was > 100 µM (inactive) each time. In addition, the GI50 in the test with RXF 393, in the test with SF-268, in the test on SN12C, with UACC-257 and with UACC-62 was > 100 µM (inactive) throughout.
Take `O=C(NCCCl)SCCO`: the GI50 in the test on A498, in the test with ACHN, in the test on CCRF-CEM, in the test on COLO 205, in the test on EKVX and in the test on HCT-116 was > 100 µM (inactive) in each case. Besides, the GI50 with HOP-62, in the test with IGROV-1, in the test on KM12, with MOLT-4, with NCI-H460 and in the test on NCI-H522 was > 100 µM (inactive) in each case. In addition, the GI50 in the test with RPMI-8226, in the test on RXF 393, in the test on SF-268, in the test with SN12C, with UACC-257 and with UACC-62 was > 100 µM (inactive) throughout.
As to `O=C1C(Cl)N(c2ccccc2[N+](=O)[O-])C1c1c[nH]c2ccccc12` (stereo not drawn), the GI50 in the test with CCRF-CEM is > 100 µM (inactive); with COLO 205, > 100 µM (inactive); with EKVX, 83.6 µM (inactive); in the test on HCT-116 it was > 100 µM (inactive); in the test on HOP-62 it was > 100 µM (inactive); with IGROV-1 it was > 100 µM (inactive). The GI50 with KM12, with MOLT-4, in the test with NCI-H460, with NCI-H522, in the test on RPMI-8226 and with RXF 393 was > 100 µM (inactive) each time. Further, the GI50 in the test on SF-268, with SN12C, in the test with UACC-257 and with UACC-62 was > 100 µM (inactive) each time.
For `CN1C(=O)CCC1c1ccc2c(c1)oc(=O)n2C` (stereo not drawn), the GI50 in the test on ACHN, in the test on CAKI-1, in the test on CCRF-CEM, in the test on COLO 205, with EKVX and in the test on HCT-116 was > 100 µM (inactive) each time. In addition, the GI50 with HOP-62, in the test on IGROV-1, with KM12, in the test on LOX IMVI, with MOLT-4 and in the test on NCI-H460 was > 100 µM (inactive) each time. The GI50 in the test on NCI-H522, in the test on RPMI-8226, with RXF 393, in the test with SF-268, in the test with SN12C and in the test with UACC-257 was > 100 µM (inactive) in each case. For the same compound, the GI50 in the test on UACC-62 is > 100 µM (inactive).
Turning to `CC(=O)c1c2c(cc3c1CC1(Cc4cc5c(cc4C1)C(=O)CCC5)C3)CCCC2` (stereo not drawn), the 50% growth inhibitory concentration (GI50) in the test with A498 is 0.822 µM (active); in the test with ACHN, 2.97 µM (inactive); in the test on CAKI-1, 7.73 µM (inactive); with CCRF-CEM, 1.77 µM (inactive); with COLO 205 it was 4.86 µM (inactive); in the test on EKVX, > 23.8 µM (inactive). Further, the GI50 with HCT-116 is 14.4 µM (inactive); with HOP-62 it was 5.09 µM (inactive); with IGROV-1, 3.45 µM (inactive); in the test on KM12, 5.3 µM (inactive); in the test with LOX IMVI it was 7.18 µM (inactive); with MOLT-4 it was 2.59 µM (inactive). Moreover, the GI50 was 4.69 µM (inactive) with NCI-H460; 4.31 µM (inactive) in the test with NCI-H522; 3.48 µM (inactive) in the test with RPMI-8226; 8.07 µM (inactive) in the test on SF-268; 13.4 µM (inactive) with SN12C; 3.34 µM (inactive) in the test with UACC-257.
Consider `CCN(CC)c1cccc2c1/C(=N/O)CCCC2`, for which the GI50 is > 100 µM (inactive) in the test with ACHN; > 100 µM (inactive) in the test on CCRF-CEM; > 100 µM (inactive) in the test on COLO 205; > 100 µM (inactive) in the test on EKVX; 92.3 µM (inactive) with HCT-116; > 100 µM (inactive) in the test with HOP-62. Also, the GI50 in the test with KM12 was > 100 µM (inactive); with LOX IMVI, > 100 µM (inactive); with MOLT-4, 65.8 µM (inactive); in the test on NCI-H460, 74.5 µM (inactive); with NCI-H522 it was > 100 µM (inactive); in the test on RPMI-8226, 56.2 µM (inactive). In addition, the GI50 in the test on RXF 393 was 90.2 µM (inactive); in the test with SF-268, > 100 µM (inactive); in the test on SN12C, > 100 µM (inactive); with UACC-257, 65 µM (inactive); with UACC-62, > 100 µM (inactive).
Turning to `CCOC(=O)c1cc(Br)c(-c2cc(C)no2)[nH]1`, the GI50 was 20.2 µM (inactive) in the test on A498; 28.8 µM (inactive) in the test with ACHN; 19.8 µM (inactive) with COLO 205; 34.8 µM (inactive) in the test with EKVX; 27.3 µM (inactive) in the test on HCT-116; 10.1 µM (inactive) in the test on KM12. The GI50 in the test with LOX IMVI is 31.3 µM (inactive); in the test on MOLT-4, 82 µM (inactive); in the test with NCI-H460, 21.1 µM (inactive); in the test on NCI-H522 it was 20.7 µM (inactive); in the test on RPMI-8226, 13.9 µM (inactive); in the test with RXF 393 it was 31 µM (inactive). Moreover, the GI50 in the test on SF-268 was 31.6 µM (inactive); in the test with SN12C, 32 µM (inactive); in the test with UACC-257, 28.1 µM (inactive); with UACC-62 it was 35.2 µM (inactive).
As for `CC(=O)NNc1nc(C)c(C(=O)NNC(=O)C(=O)Nc2ccc([N+](=O)[O-])cc2C#N)s1`, the GI50 was 58.1 µM (inactive) with A498; 83.6 µM (inactive) with ACHN; 32.7 µM (inactive) in the test on CCRF-CEM; > 100 µM (inactive) in the test with COLO 205; 96.4 µM (inactive) in the test with EKVX; > 100 µM (inactive) with HCT-116. Moreover, the GI50 in the test on HOP-62 is > 100 µM (inactive); in the test with IGROV-1 it was > 100 µM (inactive); with KM12 it was > 100 µM (inactive); in the test on LOX IMVI, 52.7 µM (inactive); in the test on MOLT-4, 38.5 µM (inactive); in the test on NCI-H460 it was > 100 µM (inactive). In addition, the GI50 with NCI-H522 was 76 µM (inactive); in the test on RPMI-8226 it was > 100 µM (inactive); in the test on SF-268, 52.2 µM (inactive); in the test with SN12C it was > 100 µM (inactive); with UACC-257, > 100 µM (inactive); in the test on UACC-62 it was > 100 µM (inactive).
With `COc1ccc(CCn2cncn2)cc1`, the GI50 in the test with ACHN, with CCRF-CEM, with COLO 205, in the test with EKVX, in the test on HCT-116 and in the test on HOP-62 was > 100 µM (inactive) in each case. Further, the GI50 in the test on IGROV-1, with KM12, in the test on MOLT-4, in the test on NCI-H460, in the test on NCI-H522 and in the test on SF-268 was > 100 µM (inactive) in each case. The GI50 in the test on SN12C, in the test with UACC-257 and with UACC-62 was > 100 µM (inactive) in each case.
For the compound `O=C1c2ccccc2N(O)C1(c1ccccc1)C1CCCC=C1N1CCOCC1` (stereo not drawn), the GI50 in the test on ACHN is > 100 µM (inactive); in the test with CAKI-1, > 100 µM (inactive); with CCRF-CEM, 40.7 µM (inactive); with COLO 205, > 100 µM (inactive); in the test with EKVX, 34.7 µM (inactive); with HCT-116 it was 28.5 µM (inactive). For the same compound, the GI50 in the test on HOP-62 was > 100 µM (inactive); in the test with IGROV-1, > 100 µM (inactive); in the test with LOX IMVI, 71.1 µM (inactive); with MOLT-4 it was 20.8 µM (inactive); in the test on NCI-H460, > 100 µM (inactive); with NCI-H522 it was 22.5 µM (inactive). Moreover, the GI50 in the test with RPMI-8226 is 17.1 µM (inactive); in the test on RXF 393 it was 22.4 µM (inactive); in the test with SF-268 it was 40.8 µM (inactive); with SN12C, > 100 µM (inactive); in the test on UACC-257 it was 70.6 µM (inactive); with UACC-62 it was 35.8 µM (inactive).
With `O=c1nc(NC(c2ccccc2)(c2ccccc2)c2ccccc2)ccn1CCCl`, the GI50 in the test on A498 was 64.7 µM (inactive); in the test on ACHN, 27.8 µM (inactive); in the test on COLO 205, 25.6 µM (inactive); in the test with EKVX, 26.9 µM (inactive); in the test on HCT-116 it was 18.8 µM (inactive); in the test with HOP-62, 21.5 µM (inactive). In addition, the GI50 in the test on IGROV-1 is 19.3 µM (inactive); with KM12, 17.1 µM (inactive); in the test with LOX IMVI it was 17.1 µM (inactive); in the test on MOLT-4, 16.2 µM (inactive); in the test with NCI-H460, 19.3 µM (inactive); in the test with NCI-H522 it was 22.8 µM (inactive). The GI50 in the test with RPMI-8226 was 17.1 µM (inactive); in the test on RXF 393 it was 16.1 µM (inactive); with SF-268, 17.2 µM (inactive); in the test with SN12C, 17.9 µM (inactive); with UACC-257, > 10 µM (inactive).
`CC(=O)Nc1ccc(C(=O)NN2C(=O)C(Cl)/C2=C/c2ccco2)cc1` (stereo not drawn): the GI50 in the test with ACHN, in the test on CCRF-CEM, in the test on COLO 205, in the test with HCT-116, in the test on HOP-62 and in the test with IGROV-1 was > 100 µM (inactive) each time. The GI50 with KM12, in the test on MOLT-4, with NCI-H460, in the test on NCI-H522, with RPMI-8226 and with SF-268 was > 100 µM (inactive) throughout. Also, the GI50 in the test with UACC-257 and in the test with UACC-62 was > 100 µM (inactive) throughout.

In general, GI50 refers to the concentration giving 50% growth inhibition.

The values are drawn from ChEMBL document CHEMBL1201862, “PubChem BioAssay data set” (2004).
